Assays:
[1] = test system: iCell cardiomyocyte CM2 (human iPS cell-derived cardiomyocytes); assay: Drug safety test-1: arrhythmia measurement by Ca-imaging (CQ1); type: cell-based; details: for duration (20% waveform width of Ca transient) / interval between peaks of Ca transient: cumulative dose1-dose3 of Table 2
Experimental: (§1) The drug was dissolved in DMSO and cumulatively administered. First, the measurement as dose0 was performed without adding drugs. […] Subsequently, immediately after the measurement, the drug was added to the same well, respectively so that the concentration was dose2, and the measurement was performed after 15 minutes. The same was done for dose3.
(§2) For the cell responsiveness after the drug administration, an arrhythmia measurement method by Ca-imaging using a confocal imaging device (CQ1, manufactured by Yokogawa Electric Corporation) and a motion test method using a live cell imaging device (SI8000, manufactured by Sony Corporation) were performed to investigate the effect on the beating rate and the line width of the beating peak.
To CM2 on day 6 of maintenance culture, a fluorescent Ca indicator (EarlyTox carditotoxicity kit, manufactured by Molecular Devices, LLC.) was added, and living cells were stained. First, the change in Ca fluorescence intensity associated with the contraction of cardiomyocytes was measured as Dose0 in CQ1 without adding drugs. Immediately after the measurement, each drug at the concentration of Dose1 was added to the same well plate, and the change in Ca fluorescence intensity was measured after 15 minutes. For Dose2 and Dose3, the drug was cumulatively administered in the same manner, and the change in Ca fluorescence intensity was measured. The addition test of each drug was performed at n=6.
The significant difference test was performed between the subject group in which DMSO was added and the drug addition group in CM2 cultured in the planar plate and CM2 cultured the aligned plate.
For the side effects seen from the waveform changes of Ca transient, early after depolarization (EAD) and delayed after depolarization (DAD), small regular waveforms (VT-like), and reaction (waveform) disappearance were recorded. The“−” in the table indicates the state in which no arrhythmia or the like has occurred. The degree of arrhythmia is mild for EAD, moderate for DAD, and severe for vt-like.

[2] = test system: iCell cardiomyocyte CM2 (human iPS cell-derived cardiomyocytes); assay: Drug safety test-3 (anti-cancer drug): motion test method using live cell imaging device, CM2 cultured for 15 days; details: 3 μM; for beating rate (BR), change rate vs pre-measurement: day 15, after 24 and 48 hours
Experimental: iCell cardiomyocytes (iCell Cardiomyocyte v2.0, manufactured by FUJIFILM Cellular Dynamics, Inc.) were used as human iPS cell-derived cardiomyocytes (hereinafter referred to as CM2). The culture was performed by the following procedure.
In the same procedure as in the above (10), CM2 was seeded at a concentration of 6×10^4 cells/well in the aligned plate (96 well plate, ND Cell Aligner) and the planar plate (96 well plate). A maintenance culture was performed in a 37° C. CO2 incubator, and the drug was administered on day 15 with setting the day of seeding as day 0.
The drug was dissolved in DMSO and administered. First, as a pre-measurement, a measurement was performed without adding the drug. Immediately after the measurement, the drug dissolved in DMSO was added to each well so that the concentration was 3 PM, and the measurement was performed after 24 hours and 48 hours. The measurement was performed in the same manner as the (10-1) measurement by motion test method using live cell imaging device described above.
For the measurement data, the measurement value at the concentration of 3 μM was corrected with the average value of the pre-measurement without adding the drug (measurement value at 3 μM/measurement value of pre-measurement), and the change rate with setting the measurement value of the pre-measurement as 1 was determined.
In addition, a T test was performed between the planar plate and the aligned plate in the drug addition group. For the comparison group with a P value of 0.01 or less, the graph was marked.
DMSO used as the solvent was added so that the final concentration was 0.01%. The effect of DMSO was confirmed by measuring 0.01% DMSO addition group after 24 hours and 48 hours. The measurement data were processed in the same manner as the drug addition group.

[3] = test system: iCell cardiomyocyte CM2 (human iPS cell-derived cardiomyocytes); assay: Drug safety test-1: motion test method using live cell imaging device (SI8000); type: cell-based; details: for CRD (corrected with the beating rate): Dose2 0.3 μM and Dose3 1 μM, vs DMSO group; for beating rate (BR) / relaxation velocity (RV): day 5, cumulative dose1-dose3 of Table 2; for CRD (corrected with beating rate): Dose1 1 μM, Dose2 3 μM, Dose3 10 μM
Experimental: as §1, §2
CM2 on day 5 of maintenance culture was used, and video data was first obtained as Dose0 using SI8000 (manufactured by Sony Corporation) without adding drugs. Immediately after the measurement, each drug at the concentration of dose1 was added to the same well plate, and video data was obtained after 15 minutes. For Dose2 and Dose3, the drug was cumulatively administered in the same manner, and video data was obtained. The addition test of each drug was performed at n=6.
The beating rate (BR), the contractile velocity (CV), the relaxation velocity (RV), and the contraction-relaxation duration (CRD) were analyzed from the video data of S18000, and the effects of the drugs on the motion of the cells were compared. The contraction-relaxation duration (CRD) was corrected by the following equation with reference to the equation of Frederica to correct variation due to the beating rate (BR).
For the side effects seen from the change in the parameters of SI8000, early after depolarization (EAD) and delayed after depolarization (DAD), small regular waveforms (VT-like), and reaction (waveform) disappearance were recorded. Changes in waveforms not classified into EAD or DAD were described as arrhythmia. The “-” in the table indicates the state in which no arrhythmia or the like has occurred.
The degree of arrhythmia is mild for EAD, moderate for DAD, and severe for vt-like.

[4] = test system: CM2 (human iPS cell-derived cardiomyocytes); assay: Measurement of oxygen consumption rate with β-oxidation inhibitor; type: cell-based; details: day 27, 50 μM; for OCR with addition of Etomoxir: 10 to 70 minutes
Experimental: The measurement was performed using an oxygen consumption rate plate assay kit (manufactured by DOJINDO LABORATORIES, E297).
To the well plate in which CM2 was cultured, an oxygen probe diluted with medium was added and allowed to stand for 30 minutes in a plate reader incubated at 37° C. in advance. Next, a sample solution containing a β-oxidation inhibitor Etomoxir that inhibits a fatty acid metabolism enzyme at the final concentration 50 μM was added, and mineral oil was immediately added dropwise to block the supply of oxygen.
After allowing the well plate to stand for 5 minutes in a plate reader incubated at 37° C., the fluorescence intensity was measured over time. The fluorescent plate reader was measured under conditions of an excitation wavelength of 495 nm/fluorescence wavelength of 650 nm, and the data acquisition was performed for at least 168 minutes every 10 minutes.
The measurement was performed with 6 wells without addition of Etomoxir as control and 3 wells with addition of 50 μM Etomoxir.
The oxygen concentration (pmol) was calculated with the calculation sheet attached to the oxygen consumption rate plate assay kit, and the oxygen consumption rate (pmol/min) was calculated from the oxygen concentration reduction amount for 60 minutes of 10 to 70 minutes after the start of the measurement.

[5] = test system: iCell cardiomyocytes CM2 (human iPS cell-derived cardiomyocytes); assay: Drug safety test-2: motion test method using live cell imaging device, CM2 cultured for 15 days; type: cell-based; details: for beating rate (BR), relative to dose0 / contractile velocity (CV), relative to dose0 / relaxation velocity (RV), relative to dose0: day 15, doses of Table 7, 120 min isoproterenol, 15 min milrinone
Experimental: The drug used was isoproterenol and milrinone. […] First, the measurement as dose0 was performed without adding drugs.
For the cell responsiveness after drug administration, a motion test method using a live cell imaging device (SI8000, manufactured by Sony Corporation) was performed to investigate the effect on the beating rate, the contractile velocity, and the relaxation velocity.
CM2 on day 15 of maintenance culture was used, and video data was first obtained as dose0 using SI8000 (manufactured by Sony Corporation) without adding drugs. Immediately after the measurement, each drug at the concentration of each dose was added to the same well plate, and video data was obtained after 120 minutes for isoproterenol and after 15 minutes for milrinone. The addition test of each drug was performed at n=5.
The beating rate (BR), the contractile velocity (CV), and the relaxation velocity (RV) were analyzed from the video data of SI8000, and the effects of the drugs on the motion of the cells were compared.
The measurement data was corrected with the average value of dose0 of no adding drugs (each measurement value/measurement value of dose0), and the relative value with setting the measurement value of dose0 as 1 was determined.

[6] = aligned and planar plates, day 6

## COc1cc(N)c(Cl)cc1C(=O)NC1CCN(CCCOc2ccc(F)cc2)CC1OC (stereo not drawn) [Cisapride]
[1]; [6]
  duration (20% waveform width of Ca transient): extended in a dose-dependent manner
  interval between peaks of Ca transient: extended in a dose-dependent manner
[1]; aligned plate, cisapride Dose1 0.01 μM to Dose3 0.1 μM, wells of 6
  incidence of arrhythmia: 1/6
[1]; cisapride, Dose3 0.1 μM
  difference between the value at Dose0 and at Dose3 (duration, interval), aligned plate versus planar plate: smaller
[1]; planar plate, cisapride 0.01-0.1 μM
  incidence of arrhythmia: No arrhythmia occurred

## COc1cccc2c1C(=O)c1c(O)c3c(c(O)c1C2=O)C[C@@](O)(C(=O)CO)C[C@@H]3O[C@H]1C[C@H](N)[C@H](O)[C@H](C)O1 [Doxorubicin, doxorubicin]
[2]
  beating rate, aligned plate compared to planar plate: significantly increased
  beating rate, result after 48 hours compared with after 24 hours: more increased
[2]; after 48 hours
  RV, aligned plate compared to planar plate: significantly increased
[2]; aligned plate
  relaxation velocity (RV), change rate vs pre-measurement: increased
  beating rate (BR), change rate vs pre-measurement: increased
[2]; planar plate
  relaxation velocity (RV), change rate vs pre-measurement: increased
  beating rate (BR), change rate vs pre-measurement: increased

## Cc1cccc(CCN2CCC(C(=O)c3ccc(NS(C)(=O)=O)cc3)CC2)n1 [E-4031]
[3]; aligned plate
  CRD (corrected with the beating rate): significantly reduced
  beating rate (BR): reduced
  relaxation velocity (RV): reduced
[3]; planar plate
  CRD (corrected with the beating rate): significantly reduced
  beating rate (BR): reduced
  relaxation velocity (RV): reduced
[3]; planar plate, E-4031
  CRD (corrected with the beating rate), planar plate compared with aligned plate: reduced more remarkably
[1]; E-4031 0.1 μM, day 6
  Duration of Ca transient, planar plate compared with aligned plate: slightly longer
[1]; E-4031 0.3 μM, day 6
  Duration of Ca transient, planar plate compared with aligned plate: significantly longer
[1]; E-4031 1 μM, day 6
  Duration of Ca transient, planar plate: not significantly but remarkably extended

## CCOC(=O)[C@@]1(CCCCCCOc2ccc(Cl)cc2)CO1 [Etomoxir]
[4]; aligned plate
  OCR compared to OCR before addition: 11.0%
  OCR with addition of Etomoxir: 7.0 pmol/min
[4]; planar plate
  OCR compared to OCR before addition: 98.3%
  OCR with addition of Etomoxir: 77.8 pmol/min

## CC(C)NCC(O)c1ccc(O)c(O)c1 (stereo not drawn) [Isoproterenol]
[3]; aligned and planar plate, any concentration (1, 3, 10 μM)
  arrhythmia or the like: No arrhythmia or the like was observed
[3]; aligned plate
  CRD (corrected with beating rate): extended
  beating rate (BR): tended to increase
  relaxation velocity (RV): tended to increase
[3]; planar plate, 1, 3, 10 μM
  change of CRD compared with the solvent (DMSO): largely different from that of the solvent (DMSO)
[3]; planar plate
  CRD (corrected with beating rate): extended
  beating rate (BR): tended to increase
  relaxation velocity (RV): tended to increase
[1]; [6]
  duration (20% waveform width of Ca transient): Reduction was observed
  interval between peaks of Ca transient: Reduction was observed
[1]; aligned and planar plates, up to high concentration (Dose3, 10 μM)
  arrhythmia: arrhythmia did not occur
[1]; planar plate, isoproterenol 1, 3, 10 μM
  reduction in duration: small
[5]; aligned plate
  beating rate (BR), relative to dose0: increased
  contractile velocity (CV), relative to dose0: increased
  relaxation velocity (RV), relative to dose0: increased
[5]; isoproterenol dose2 (0.3 μM) and dose3 (3 μM)
  relaxation velocity, aligned plate compared to planar plate: increased
[5]; planar plate
  beating rate (BR), relative to dose0: increased
  contractile velocity (CV), relative to dose0: tended to reduce
  relaxation velocity (RV), relative to dose0: increased

## Cc1[nH]c(=O)c(C#N)cc1-c1ccncc1 [Milrinone]
[5]; aligned plate
  beating rate (BR), relative to dose0: increased
  contractile velocity (CV), relative to dose0: increased
  relaxation velocity (RV), relative to dose0: increased
[5]; milrinone
  RV, aligned plate compared to planar plate: significantly increased
[5]; milrinone dose3 (300 μM)
  contractile velocity (CV), aligned plate compared to planar plate: significantly increased
  relaxation velocity (RV), aligned plate compared to before the drug addition: predominantly increased
[5]; milrinone, all doses (30, 100, 300 μM)
  beating rate (BR), aligned plate compared to before the drug addition: predominantly increased
[5]; planar plate
  beating rate (BR), relative to dose0: did not change
  contractile velocity (CV), relative to dose0: tended to reduce
  relaxation velocity (RV), relative to dose0: tended to reduce

## C=C[C@H]1C[N@@]2CC[C@H]1C[C@@H]2[C@@H](O)c1ccnc2ccc(OC)cc12 [Quinidine]
[1]; aligned plate, quinidine Dose1, 3 μM, wells of 6
  incidence of moderate to severe arrhythmia (DAD, VT-like): 0/6
[1]; aligned plate, quinidine Dose2, 10 μM, wells of 6
  incidence of moderate to severe arrhythmia (DAD, VT-like): 0/6
[1]; aligned plate, quinidine Dose3, 30 μM, wells of 6
  incidence of moderate to severe arrhythmia (DAD, VT-like): 6/6
[1]; planar plate, quinidine Dose1, 3 μM, wells of 6
  incidence of moderate to severe arrhythmia: 0/6
[1]; planar plate, quinidine Dose2, 10 μM, wells of 6
  incidence of moderate to severe arrhythmia: 0/6
[1]; planar plate, quinidine Dose3, 30 μM, wells of 6
  incidence of moderate to severe arrhythmia: 4/6
[1]; quinidine Dose2, 10 μM
  duration of Ca transient, planar plate compared to aligned plate: longer extension
  interval of Ca transient, planar plate compared to aligned plate: longer extension
  peak height of Ca transient, planar plate compared to aligned plate: significantly weaker decrease
[1]; quinidine Dose3, 30 μM
  contraction force: greatly reduced
  waveform of Ca transient: changed to a higher frequency waveform

From patent US20260002931A1, “CULTURED CELL SHEET AND METHOD FOR PRODUCING SAME; METHOD FOR EVALUATING COMPOUND OR DRUG; AND METHOD FOR EVALUATING QUALITY OF CULTURED CELL SHEET” (OJI HOLDINGS CORPORATION, priority 2022, published 2026)
